Laboratory results from patent publication US20140113877A1, “NOVEL 3,4,4A,10B-TETRAHYDRO-1H-THIOPYRANO[4,3-C] ISOQUINOLINE COMPOUNDS” (Takeda GmbH, priority 2011, published 2014).

How the values were obtained:
human PDE5 = molecular target: T1, human PDE5 (Homo sapiens, UniProt O76074); experiment: Inhibition of PDE5 activity (SPA, [3H]cGMP, platelet lysate); type: biochemical; settings: 0.5 μM cGMP, binned: below 8 / between 8 and 9, read-out: PDE5 inhibitory values measured as −logIC50 (converted)
T1 construct: from tissue; host or cells: human platelets from fresh donor blood (platelet lysate)
Experimental: As a source for human PDE5, platelets were used. For that purpose, 150 ml fresh blood from human donors anticoagulated with citrate [final concentration 0.3% (w/v)] was centrifuged at 200 g for 10 min to obtain the so-called platelet-rich-plasma (PRP) as a supernatant. 1/10 volume of ACD solution (85 mM Na3-citrate, 111 mM D-glucose, 71 mM citric acid, pH 4.4) was added to 9/10 volume of PRP. After centrifugation (1,400 g, 10 min) the cell pellet was resuspended in 3 ml homogenization buffer (NaCl 140 mM, KCl 3.8 mM, EGTA (ethylene glycol tetraacetic acid) 1 mM, MgCl2 1 mM, Tris-HCl 20 mM, beta-mercaptoethanol 1 mM, pH 8.2) plus protease-inhibitor mix resulting in final concentrations of 0.5 mM Pefablock (Roche), 10 μM Leupeptin, 5 μM Trypsine inhibitor, 2 mM Benzamidin and 10 μM Pepstatin A. The suspension was sonicated and thereafter centrifuged for 15 min at 10,000 g. The resulting supernatant (platelet lysate) was used for enzymatic assays.
PDE5 activities were measured in a 96-well platform using SPA (scintillation proximity assay) yttrium silicate beads (RPNQ1050 from GE Healthcare). In a first step the PDE activity operated hydrolysis of either [^3H] cGMP (substrate) into [^3H] 5′GMP. In a second step substrate and product were distinguished following addition of SPA yttrium silicate beads. Indeed, in the presence of zinc sulphate the linear [^3H] […] Close proximity of bound [^3H] […] The test volume was 100 μl and contained 20 mM Tris buffer (pH 7.4), 0.1 mg of BSA (bovine serum albumin)/ml, 5 mM Mg^2+, 1 μM motapizone (PDE3 Inhibitor), 10 nM PDE2 inhibitor 2-(3,4-dimethoxybenzyl)-7-[(1R,2R)-2-hydroxy-1-(2-phenylethyl)propyl]-5-methylimidazo[5,1-f][1,2,4]triazin-4(3H)-one, 0.5 μM cGMP (cyclic guanosine monophosphate) (including about 50,000 cpm of [3H]cGMP as a tracer) (substrate), 1 μl of the respective compound dilution in dimethylsulfoxide (DMSO) and sufficient PDE5-containing platelet lysat (10,000×g supernatant, see above) to ensure that 10-20% of the cGMP was converted under the said experimental conditions. […] After a preincubation of 5 min at 37° C., the reaction was commenced by adding the substrate (cGMP) and the assay was incubated for a further 15 min. The reaction was terminated by adding SPA beads (50 μl). In agreement with the manufacturer's instructions, the SPA beads had previously been resuspended in water, but were then diluted 1:3 (v/v) in water. This diluted solution also contained 3 mM 8-methoxymethyl-3-isobutyl-1-methylxanthine (IBMX) to ensure a complete block of PDE activity. Once the beads were sedimented (>30 min), the MTP's were analyzed in commercially available luminescence detection devices. The corresponding IC50 values of the compounds for inhibition of PDE activity were determined from the concentration-effect curves by means of non-linear regression.
For the following compounds PDE5 inhibitory values [measured as −logIC50 (mol/l)] below 8 and between 8 and 9 have been determined. The numbers of the compounds correspond to the numbers of the examples.

PDE4B1 = molecular target: T2, PDE4B1 (Homo sapiens, UniProt Q07343); experiment: Inhibition of PDE4B1 activity (SPA, [3H]cAMP); type: biochemical; settings: recombinant PDE4B1, 0.5 μM cAMP; binned: below 8 / between 8 and 9; read-out: PDE4B1 inhibitory values measured as −logIC50 (converted)
T2 construct: made in house; host or cells: SF21 insect cells (baculovirus; virus prepared in SF9 cells)
T2 sequence (Q07343 whole entry): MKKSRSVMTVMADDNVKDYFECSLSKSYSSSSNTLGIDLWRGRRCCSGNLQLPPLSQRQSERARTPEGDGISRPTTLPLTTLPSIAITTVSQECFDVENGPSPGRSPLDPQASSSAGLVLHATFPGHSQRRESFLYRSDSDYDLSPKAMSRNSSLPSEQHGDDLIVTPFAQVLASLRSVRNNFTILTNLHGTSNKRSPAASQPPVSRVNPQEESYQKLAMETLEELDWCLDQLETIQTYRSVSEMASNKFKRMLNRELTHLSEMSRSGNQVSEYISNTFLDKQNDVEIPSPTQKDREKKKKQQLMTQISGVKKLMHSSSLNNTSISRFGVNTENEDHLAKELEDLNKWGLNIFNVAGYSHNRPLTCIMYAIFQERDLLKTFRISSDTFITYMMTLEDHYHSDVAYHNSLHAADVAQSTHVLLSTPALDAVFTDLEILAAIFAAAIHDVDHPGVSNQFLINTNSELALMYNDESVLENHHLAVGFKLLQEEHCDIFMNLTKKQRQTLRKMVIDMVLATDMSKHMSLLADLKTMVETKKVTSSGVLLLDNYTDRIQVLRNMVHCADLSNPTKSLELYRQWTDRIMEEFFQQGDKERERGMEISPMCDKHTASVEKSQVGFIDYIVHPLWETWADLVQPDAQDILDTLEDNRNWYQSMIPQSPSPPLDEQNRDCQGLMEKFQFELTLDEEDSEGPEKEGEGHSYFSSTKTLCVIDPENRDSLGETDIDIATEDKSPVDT
Experimental: The PDE4B1 (GB no. L20966) was a gift of Prof. M. Conti (Stanford University, USA). It was amplified from the original plasmid (pCMV5) via PCR with primers Rb18 (5′-[…]-3′) and Rb10 (5′-[…]-3′) and cloned into the pCR-Bac vector (Invitrogen, Groningen, NL).
The recombinant baculovirus was prepared by means of homologous recombination in SF9 insect cells. The expression plasmids were cotransfected with Baculo-Gold DNA (Pharmingen, Hamburg) using a standard protocol (Pharmingen, Hamburg). Wt virus-free recombinant virus supernatants were selected using plaque assay methods. After that, high-titre virus supernatants were prepared by amplifying 3 times. PDE4B1 was expressed in SF21 cells by infecting 2×10^6 cells/ml with an MOI (multiplicity of infection) between 1 and 10 in the serum-free SF900 medium (GIBCO Life Technologies, Karlsruhe, Germany). The cells were cultured at 28° C. for 48-72 hours, after which they were pelleted for 5-10 min at 1000×g and 4° C.
The SF21 insect cells were resuspended, at a concentration of approx. 10^7 cells/ml, in ice-cold (4° C.) homogenization buffer (20 mM Tris, pH 8.2, containing the following additions: 140 mM NaCl, 3.8 mM KCl, 1 mM EGTA, 1 mM MgCl2, 10 mM β-mercaptoethanol, 2 mM benzamidine, 0.4 mM Pefablock, 10 μM leupeptin, 10 μM pepstatin A, 5 μM trypsin inhibitor) and disrupted by ultrasonication. The homogenate was then centrifuged for 10 min at 1000×g and the supernatant was stored at −80° C. until subsequent use (see below). The protein content was determined by the Bradford method (BioRad, Munich) using BSA (Bovine serum albumin) as the standard.
PDE4B1 activities were measured in a 96-well platform using SPA (scintillation proximity assay) yttrium silicate beads (RPNQ1050 from GE Healthcare). In a first step the PDE activity operated hydrolysis of either [^3H] cAMP (substrate) into [^3H] 5′AMP. In a second step substrate and product were distinguished following addition of SPA yttrium silicate beads. Indeed, in the presence of zinc sulphate the linear [^3H] […] Close proximity of bound [^3H] […] The test volume was 100 μl and finally contained 20 mM Tris buffer (pH 7.4), 0.1 mg/ml of BSA, 5 mM Mg^2+, 0.5 μM cAMP (including about 50,000 cpm of [3H]cAMP) as substrate, 1 μl of the respective substance dilution in DMSO and sufficient recombinant PDE (1000×g supernatant, see above) to ensure that 10-20% of the cAMP was converted under the said experimental conditions. […] After a preincubation of 5 min at 37° C., the reaction was commenced by adding the substrate (cAMP) and the assays were incubated for a further 15 min. Reactions were terminated by adding SPA beads (50 μl). In agreement with the manufacturer's instructions, the SPA beads had previously been resuspended in water, but were then diluted 1:3 (v/v) in water. This diluted solution further contained 3 mM IBMX (isobutylmethylxanthine) to ensure a complete block of PDE activity. Once the beads were sedimented (>30 min), the MTP's (microtiter plate) were analyzed in commercially available luminescence detection devices. The corresponding IC50 values of the compounds for inhibition of PDE4B1 activity were determined from the concentration-effect curves by means of non-linear regression.
For the following compounds PDE4B1 inhibitory values [measured as −logIC50 (mol/l)] below 8 and between 8 and 9 have been determined. The numbers of the compounds correspond to the numbers of the examples.

SMILES	IC50 (human PDE5) [nM]	IC50 (PDE4B1) [nM]
CCOc1cc2c(cc1OC)C(c1cccc(C(=O)N3CCC(n4c(=O)c5sc(-c6ccccc6)cc5n(Cc5ccc(OC)c(F)c5)c4=O)CC3)c1)=N[C@@H]1CCSC[C@H]21 [Example 2, 3-[1-({3-[(4aR,10bR)-9-ethoxy-8-methoxy-3,4,4a,10b-tetrahydro-1H-thiopyrano[4,3-c]isoquinolin-6-yl]phenyl}carbonyl)piperidin-4-yl]-1-(3-fluoro-4-methoxybenzyl)-6-phenylthieno[3,2-d]pyrimidine-2,4(1H,3H)-dione]	1 to 10	1 to 10
CCOc1cc2c(cc1OC)C(c1ccc(C(=O)N3CCC(n4c(=O)c5sc(-c6ccccc6)cc5n(Cc5ccccc5)c4=O)CC3)cc1)=N[C@@H]1CCSC[C@H]21 [Example 7, 1-benzyl-3-[1-({4-[(4aR,10bR)-9-ethoxy-8-methoxy-3,4,4a,10b-tetrahydro-1H-thiopyrano[4,3-c]isoquinolin-6-yl]phenyl}carbonyl)piperidin-4-yl]-6-phenylthieno[3,2-d]pyrimidine-2,4(1H,3H)-dione]	1 to 10	1 to 10
CCOc1cc2c(cc1OC)C(c1ccc(C(=O)N3CCC(n4c(=O)c5sc(-c6ccc7c(c6)OCO7)cc5n(Cc5ccc(OC)c(F)c5)c4=O)CC3)cc1)=N[C@@H]1CCSC[C@H]21 [Example 8, 6-(1,3-benzodioxol-5-yl)-3-[1-({4-[(4aR,10bR)-9-ethoxy-8-methoxy-3,4,4a,10b-tetrahydro-1H-thiopyrano[4,3-c]isoquinolin-6-yl]phenyl}carbonyl)piperidin-4-yl]-1-(3-fluoro-4-methoxybenzyl)thieno[3,2-d]pyrimidine-2,4(1H,3H)-dione]	1 to 10	1 to 10
CCOc1cc2c(cc1OC)C(c1ccc(C(=O)N3CCC(n4c(=O)c5sc(-c6ccc(F)cc6OC)cc5n(Cc5ccc(OC)c(F)c5)c4=O)CC3)cc1)=N[C@@H]1CCSC[C@H]21 [Example 9, 3-[1-({4-[(4aR,10bR)-9-ethoxy-8-methoxy-3,4,4a,10b-tetrahydro-1H-thiopyrano[4,3-c]isoquinolin-6-yl]phenyl}carbonyl)piperidin-4-yl]-1-(3-fluoro-4-methoxybenzyl)-6-(4-fluoro-2-methoxyphenyl)thieno[3,2-d]pyrimidine-2,4(1H,3H)-dione]	1 to 10	1 to 10

Continued, values first:

IC50 (human PDE5) [nM]	IC50 (PDE4B1) [nM]	SMILES
1 to 10	1 to 10	CCOc1cc2c(cc1OC)C(c1ccc(C(=O)N3CCC(n4c(=O)c5sc(-c6ccccc6)cc5n(Cc5ccc(OC)c(F)c5)c4=O)CC3)cc1)=N[C@@H]1CCSC[C@H]21 [Example 1, 3-(1-{4-[(4aR,10bR)-9-ethoxy-8-methoxy-3,4,4a,10b-tetrahydro-1H-thiopyrano[4,3-c]isoquinolin-6-yl]benzoyl}piperidin-4-yl)-1-(3-fluoro-4-methoxybenzyl)-6-phenylthieno[3,2-d]pyrimidine-2,4(1H,3H)-dione]
1 to 10	1 to 10	CCOc1cc2c(cc1OC)C(c1ccc(C(=O)N3CCC(n4c(=O)c5sc(-c6ccccc6)cc5n(Cc5cc(F)c(OC)c(F)c5)c4=O)CC3)cc1)=N[C@@H]1CCSC[C@H]21 [Example 3, 1-(3,5-difluoro-4-methoxybenzyl)-3-[1-({4-[(4aR,10bR)-9-ethoxy-8-methoxy-3,4,4a,10b-tetrahydro-1H-thiopyrano[4,3-c]isoquinolin-6-yl]phenyl}carbonyl)piperidin-4-yl]-6-phenylthieno[3,2-d]pyrimidine-2,4(1H,3H)-dione]
1 to 10	1 to 10	CCOc1cc2c(cc1OC)C(c1ccc(C(=O)N3CCC(n4c(=O)c5sc(-c6ccccc6)cc5n(Cc5ccc(OC)c(F)c5F)c4=O)CC3)cc1)=N[C@@H]1CCSC[C@H]21 [Example 4, 1-(2,3-difluoro-4-methoxybenzyl)-3-[1-({4-[(4aR,10bR)-9-ethoxy-8-methoxy-3,4,4a,10b-tetrahydro-1H-thiopyrano[4,3-c]isoquinolin-6-yl]phenyl}carbonyl)piperidin-4-yl]-6-phenylthieno[3,2-d]pyrimidine-2,4(1H,3H)-dione]
1 to 10	1 to 10	CCOc1cc2c(cc1OC)C(c1ccc(C(=O)N3CCC(n4c(=O)c5sc(-c6ccccc6)cc5n(Cc5cc(OC)c(OC)cc5F)c4=O)CC3)cc1)=N[C@@H]1CCSC[C@H]21 [Example 5, 3-[1-({4-[(4aR,10bR)-9-ethoxy-8-methoxy-3,4,4a,10b-tetrahydro-1H-thiopyrano[4,3-c]isoquinolin-6-yl]phenyl}carbonyl)piperidin-4-yl]-1-(2-fluoro-4,5-dimethoxybenzyl)-6-phenylthieno[3,2-d]pyrimidine-2,4(1H,3H)-dione]
1 to 10	> 10	CCOc1cc2c(cc1OC)C(c1ccc(C(=O)N3CCC(n4c(=O)c5sc(-c6ccccc6)cc5n(Cc5ccc(C)c(F)c5)c4=O)CC3)cc1)=N[C@@H]1CCSC[C@H]21 [Example 6, 3-[1-({4-[(4aR,10bR)-9-ethoxy-8-methoxy-3,4,4a,10b-tetrahydro-1H-thiopyrano[4,3-c]isoquinolin-6-yl]phenyl}carbonyl)piperidin-4-yl]-1-(3-fluoro-4-methylbenzyl)-6-phenylthieno[3,2-d]pyrimidine-2,4(1H,3H)-dione]
